Test results: patent publication US20250064941A1, “SIGLEC LIGANDS, CONJUGATES, AND METHODS OF USE THEREOF” (Osprey Biopharmaceuticals, Inc., priority 2023, published 2025)
pKd: −log10 of the molar value.

Legend:
cynomolgus Siglec-2/CD22 = cynomolgus Siglec-2/CD22 (Macaca fascicularis, UniProt A0A2K5WCZ6); test: biochemical; assay type: binding; conditions: SPR, steady-state analysis; read-out: Affinity cyno CD22
Outline: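 SPR with desialylated (SialoExo, 4 h, 37° C.) cynomolgus CD22 amine-coupled to a CM5 chip. Running buffer 10 mM HEPES, 150 mM NaCl, 0.05% Tween-20, pH 7.5, 1% DMSO, with solvent correction; 120 s dissociation. Affinities from steady-state analysis.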

[1] = molecular target: T1, mouse Siglec-2-Fc-Avi (CD22) (Mus musculus, UniProt P35329); test: SPR binding affinity to mouse CD22; conditions: steady-state analysis
T1 construct: made in house
T1 sequence (P35329 22-708 limits assumed): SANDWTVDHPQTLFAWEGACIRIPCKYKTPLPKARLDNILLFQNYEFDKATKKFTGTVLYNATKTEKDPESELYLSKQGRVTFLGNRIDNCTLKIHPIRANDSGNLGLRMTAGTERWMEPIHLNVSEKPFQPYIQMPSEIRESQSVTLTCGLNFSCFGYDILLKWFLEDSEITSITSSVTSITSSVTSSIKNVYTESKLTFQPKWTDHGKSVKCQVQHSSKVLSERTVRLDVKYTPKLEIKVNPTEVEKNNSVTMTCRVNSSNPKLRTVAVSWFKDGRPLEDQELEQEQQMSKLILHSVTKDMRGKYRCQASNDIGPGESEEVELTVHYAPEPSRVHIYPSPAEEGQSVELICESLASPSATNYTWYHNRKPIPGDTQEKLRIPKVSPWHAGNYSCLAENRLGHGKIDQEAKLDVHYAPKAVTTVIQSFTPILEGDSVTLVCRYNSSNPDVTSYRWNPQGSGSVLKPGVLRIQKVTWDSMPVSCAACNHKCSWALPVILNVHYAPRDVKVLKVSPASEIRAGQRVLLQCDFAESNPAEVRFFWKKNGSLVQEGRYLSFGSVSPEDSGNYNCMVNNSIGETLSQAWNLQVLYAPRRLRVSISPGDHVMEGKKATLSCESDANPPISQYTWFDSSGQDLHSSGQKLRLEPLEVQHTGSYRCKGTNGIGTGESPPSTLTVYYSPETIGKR
Outline: (§1)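 SialoExo pretreatment, 4 h 37° C.; biotinylated CD22 on SA chip, Biacore 8K. Buffer 10 mM HEPES, 150 mM NaCl, 0.05% Tween-20, pH 7.5, 1% DMSO. Dissociation 120 s; solvent-corrected; steady-state KD.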

[2] = molecular target: T2, human Siglec-2/CD22 protein (Homo sapiens, UniProt P20273); test: SPR binding affinity to human CD22; conditions: steady-state analysis
T2 construct: purchased Acro Biosystems SI2-H82E3
T2 sequence (P20273 20-847): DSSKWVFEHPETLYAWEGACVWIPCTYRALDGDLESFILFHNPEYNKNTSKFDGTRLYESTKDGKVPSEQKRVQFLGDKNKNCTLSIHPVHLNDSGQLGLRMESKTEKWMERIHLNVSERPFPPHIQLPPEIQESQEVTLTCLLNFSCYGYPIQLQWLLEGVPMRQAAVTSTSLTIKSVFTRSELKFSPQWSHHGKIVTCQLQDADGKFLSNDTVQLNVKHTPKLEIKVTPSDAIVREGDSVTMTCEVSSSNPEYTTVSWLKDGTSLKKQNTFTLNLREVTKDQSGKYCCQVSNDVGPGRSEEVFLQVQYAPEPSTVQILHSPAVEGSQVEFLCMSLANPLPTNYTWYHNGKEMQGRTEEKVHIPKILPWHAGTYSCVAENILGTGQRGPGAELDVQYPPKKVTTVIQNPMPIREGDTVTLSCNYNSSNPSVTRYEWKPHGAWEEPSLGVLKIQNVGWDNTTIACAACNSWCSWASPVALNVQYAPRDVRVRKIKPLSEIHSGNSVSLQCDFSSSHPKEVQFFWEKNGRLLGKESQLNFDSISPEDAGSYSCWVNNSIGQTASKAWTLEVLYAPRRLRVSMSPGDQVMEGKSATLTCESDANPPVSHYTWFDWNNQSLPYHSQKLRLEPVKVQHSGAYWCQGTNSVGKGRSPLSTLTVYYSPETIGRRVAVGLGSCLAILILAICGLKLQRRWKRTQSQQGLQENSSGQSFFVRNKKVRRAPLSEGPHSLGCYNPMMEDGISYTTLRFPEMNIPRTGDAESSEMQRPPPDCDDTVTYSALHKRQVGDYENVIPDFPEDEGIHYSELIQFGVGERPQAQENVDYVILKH
Outline: as §1

cynomolgus Siglec-2/CD22, sequence (A0A2K5WCZ6 entry or part of it): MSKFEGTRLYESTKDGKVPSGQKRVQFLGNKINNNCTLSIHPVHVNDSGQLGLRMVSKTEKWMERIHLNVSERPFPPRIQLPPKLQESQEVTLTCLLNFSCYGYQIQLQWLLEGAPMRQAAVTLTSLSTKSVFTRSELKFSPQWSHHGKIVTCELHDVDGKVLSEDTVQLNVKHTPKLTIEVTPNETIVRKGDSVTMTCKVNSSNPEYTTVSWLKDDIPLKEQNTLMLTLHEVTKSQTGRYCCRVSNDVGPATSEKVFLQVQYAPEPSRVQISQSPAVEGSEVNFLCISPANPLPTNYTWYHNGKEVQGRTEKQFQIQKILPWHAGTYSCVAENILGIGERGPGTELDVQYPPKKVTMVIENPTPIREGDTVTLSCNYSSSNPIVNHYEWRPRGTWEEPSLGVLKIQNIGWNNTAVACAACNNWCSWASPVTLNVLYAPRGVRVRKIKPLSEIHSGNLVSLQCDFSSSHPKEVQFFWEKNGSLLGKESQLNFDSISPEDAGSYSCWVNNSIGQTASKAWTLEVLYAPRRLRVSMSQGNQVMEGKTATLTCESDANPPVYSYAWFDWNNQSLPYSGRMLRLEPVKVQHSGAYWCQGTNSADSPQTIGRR

Row | pKd (cynomolgus Siglec-2/CD22) | pKd [1] | pKd [2] | SMILES
1 | 5.00 to 6.00 | 5.00 to 6.00 | 5.00 to 6.00 | C#CCCOc1ccc(CO[C@]2(C(=O)O)C[C@H](O)[C@@H](NC(=O)CO)[C@H]([C@H](O)[C@H](O)CNC(=O)C(F)(F)c3ccccc3)O2)cc1 [Compound 172, (2R,4S,5R,6R)-2-((4-(but-3-yn-1-yloxy)benzyl)oxy)-6-((1R,2R)-3-(2,2-difluoro-2-phenylacetamido)-1,2-dihydroxypropyl)-4-hydroxy-5-(2-hydroxyacetamido)tetrahydro-2H-pyran-2-carboxylic acid]
2 | 5.00 to 6.00 | 5.00 to 6.00 | < 5.00 | C#CCOCCCCCCO[C@]1(C(=O)O)C[C@H](O)[C@@H](NCC(=O)N(C)C)[C@H]([C@H](O)[C@H](O)CNC(=O)Cc2ccc(Cl)cc2)O1 [Compound 180, (2R,4S,5R,6R)-6-((1R,2R)-3-(2-(4-chlorophenyl)acetamido)-1,2-dihydroxypropyl)-5-((2-(dimethylamino)-2-oxoethyl)amino)-4-hydroxy-2-((6-(prop-2-yn-1-yloxy)hexyl)oxy)tetrahydro-2H-pyran-2-carboxylic acid]
3 | > 6.00 | 5.00 to 6.00 | 5.00 to 6.00 | C#CCCOc1ccc(CO[C@]2(C(=O)O)C[C@H](O)[C@@H](NC(=O)CO)[C@H]([C@H](O)[C@H](O)CNC(=O)Cc3ccccc3N3CCOCC3)O2)cc1 [Compound 138, (2R,4S,5R,6R)-2-((4-(but-3-yn-1-yloxy)benzyl)oxy)-6-((1R,2R)-1,2-dihydroxy-3-(2-(2-morpholinophenyl)acetamido)propyl)-4-hydroxy-5-(2-hydroxyacetamido)tetrahydro-2H-pyran-2-carboxylic acid]
4 | 5.00 to 6.00 | < 5.00 | > 6.00 | C#CCOCCOCCO[C@]1(C(=O)O)C[C@H](O)[C@@H](NC(=O)CO)[C@H]([C@H](O)[C@H](O)CNC(=O)c2cc3c(s2)-c2ccccc2OC3)O1 [Compound 179, (2R,4S,5R,6R)-6-((1R,2R)-1,2-dihydroxy-3-(4H-thieno[3,2-c]chromene-2-carboxamido)propyl)-4-hydroxy-5-(2-hydroxyacetamido)-2-(2-(2-(prop-2-yn-1-yloxy)ethoxy)ethoxy)tetrahydro-2H-pyran-2-carboxylic acid]
5 | > 6.00 | 5.00 to 6.00 | > 6.00 | C#CCCC(=O)NCCCCCCO[C@]1(C(=O)O)C[C@H](O)[C@@H](NC(=O)CO)[C@H]([C@H](O)[C@H](O)CNC(=O)Cc2ccc(Cl)cc2)O1 [Compound 217, (2R,4S,5R,6R)-6-((1R,2R)-3-(2-(4-chlorophenyl)acetamido)-1,2-dihydroxypropyl)-4-hydroxy-5-(2-hydroxyacetamido)-2-((6-(pent-4-ynamido)hexyl)oxy)tetrahydro-2H-pyran-2-carboxylic acid]
6 | > 6.00 | 5.00 to 6.00 | > 6.00 | C#CCCOc1ccc(CO[C@]2(C(=O)O)C[C@H](O)[C@@H](NC(=O)CO)[C@H]([C@H](O)[C@H](O)CNC(=O)Cc3ccc(O)c(Cl)c3)O2)cc1 [Compound 136, (2R,4S,5R,6R)-2-((4-(but-3-yn-1-yloxy)benzyl)oxy)-6-((1R,2R)-3-(2-(3-chloro-4-hydroxyphenyl)acetamido)-1,2-dihydroxypropyl)-4-hydroxy-5-(2-hydroxyacetamido)tetrahydro-2H-pyran-2-carboxylic acid]
7 | > 6.00 | 5.00 to 6.00 | > 6.00 | CCCCCC[C@H](O)[C@]1(C(=O)O)C[C@H](O)[C@@H](NC(=O)CO)[C@H]([C@H](O)[C@H](O)CNC(=O)Cc2ccc(Cl)cc2)O1 [Compound 203, (2S,4S,5R,6R)-6-((1R,2R)-3-(2-(4-chlorophenyl)acetamido)-1,2-dihydroxypropyl)-4-hydroxy-5-(2-hydroxyacetamido)-2-((S)-1-hydroxyheptyl)tetrahydro-2H-pyran-2-carboxylic acid]
8 | < 5.00 | < 5.00 | < 5.00 | C#CCOCCOCCO[C@]1(C(=O)O)C[C@H](O)[C@@H](NC(=O)CO)[C@H]([C@H](O)[C@H](O)CNC(=O)c2cccc(Cl)c2)O1 [Compound 201, (2R,4S,5R,6R)-6-((1R,2R)-3-(3-chlorobenzamido)-1,2-dihydroxypropyl)-4-hydroxy-5-(2-hydroxyacetamido)-2-(2-(2-(prop-2-yn-1-yloxy)ethoxy)ethoxy)tetrahydro-2H-pyran-2-carboxylic acid]

Further lines, the molecule ahead of its results:

Row | SMILES | pKd (cynomolgus Siglec-2/CD22) | pKd [1] | pKd [2]
9 | C#CCOCCOCCO[C@]1(C(=O)O)C[C@H](O)[C@@H](NC(=O)CO)[C@H]([C@H](O)[C@H](O)CNC(=O)Cc2cc(F)cc(C(F)(F)F)c2)O1 [Compound 133, (2R,4S,5R,6R)-6-((1R,2R)-3-(2-(3-fluoro-5-(trifluoromethyl)phenyl)acetamido)-1,2-dihydroxypropyl)-4-hydroxy-5-(2-hydroxyacetamido)-2-(2-(2-(prop-2-yn-1-yloxy)ethoxy)ethoxy)tetrahydro-2H-pyran-2-carboxylic acid] | > 6.00 | < 5.00 | > 6.00
10 | C#CCOCCOCCO[C@]1(C(=O)O)C[C@H](O)[C@@H](NC(=O)CS)[C@H]([C@H](O)[C@H](O)CNC(=O)Cc2ccc(-c3ccc(O)cc3)cc2)O1 [Compound 69, (2R,4S,5R,6R)-6-((1R,2R)-1,2-dihydroxy-3-(2-(4′-hydroxy-[1,1′-biphenyl]-4-yl)acetamido)propyl)-4-hydroxy-5-(2-mercaptoacetamido)-2-(2-(2-(prop-2-yn-1-yloxy)ethoxy)ethoxy)tetrahydro-2H-pyran-2-carboxylic acid] | < 5.00 | < 5.00 | 5.00 to 6.00
11 | C#CCOCCOCCO[C@]1(C(=O)O)C[C@H](O)[C@@H](NC(=O)CO)[C@H]([C@H](O)[C@H](O)CNC(=O)Cc2cccc(Cl)c2)O1 [Compound 125, (2R,4S,5R,6R)-6-((1R,2R)-3-(2-(3-chlorophenyl)acetamido)-1,2-dihydroxypropyl)-4-hydroxy-5-(2-hydroxyacetamido)-2-(2-(2-(prop-2-yn-1-yloxy)ethoxy)ethoxy)tetrahydro-2H-pyran-2-carboxylic acid] | 5.00 to 6.00 | 5.00 to 6.00 | > 6.00
12 | C#CCOCCOCCO[C@]1(C(=O)O)C[C@H](O)[C@@H](NC(=O)CO)[C@H]([C@H](O)[C@H](O)CNC(=O)Cc2ccc(-c3cc[nH]c(=O)c3)cc2)O1 [Compound 75, (2R,4S,5R,6R)-6-((1R,2R)-1,2-dihydroxy-3-(2-(4-(2-oxo-1,2-dihydropyridin-4-yl)phenyl)acetamido)propyl)-4-hydroxy-5-(2-hydroxyacetamido)-2-(2-(2-(prop-2-yn-1-yloxy)ethoxy)ethoxy)tetrahydro-2H-pyran-2-carboxylic acid] | < 5.00 | < 5.00 | < 5.00
13 | C#CCOCCOCCO[C@]1(C(=O)O)C[C@H](O)[C@@H](NC(=O)CO)[C@H]([C@H](O)[C@H](O)CNC(=O)Cc2ccc(-c3ccccc3O)cc2)O1 [Compound 68, (2R,4S,5R,6R)-6-((1R,2R)-1,2-dihydroxy-3-(2-(2′-hydroxy-[1,1′-biphenyl]-4-yl)acetamido)propyl)-4-hydroxy-5-(2-hydroxyacetamido)-2-(2-(2-(prop-2-yn-1-yloxy)ethoxy)ethoxy)tetrahydro-2H-pyran-2-carboxylic acid] | 5.00 to 6.00 | 5.00 to 6.00 | > 6.00
